Where two headings read alike, the source gives them in different places.
Columns and labels:
[1] = Hepatocyte stability assay, mouse hepatocytes; format: in vitro ADME; conditions: for hepatocyte CLint at 1 uM: male, CD-1, mouse, cryopreserved hepatocytes, pH 7.3, 0.7 million cells per mL, 1 uM compound
Summary of the method: (§1)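 Pooled cryopreserved hepatocytes (male CD-1 mouse, or mixed-gender human donors; ≥10 each) at 0.7 million viable cells/mL in Krebs-Henseleit buffer pH 7.3, with 1 uM compound (≤0.01% DMSO). Incubated up to 2 h at 37 °C/5% CO2, quenched with acetonitrile; parent compound followed by HPLC-MS/MS peak area.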

[2] = Hepatocyte stability assay, human hepatocytes; format: in vitro ADME; conditions: for hepatocyte CLint at 1 uM: both sexes, human, cryopreserved hepatocytes, pH 7.3, 0.7 million cells per mL, 1 uM compound
Summary of the method: as §1

[3] = Microsomal stability assay, mouse liver microsomes; conditions: for microsomal CLint at 0.1 uM: male, CD-1, mouse, liver microsomes, pH 7.4, Microsomal Stability Mouse Clint, 0.1 mg/mL microsomes, 0.1 uM compound
[4] = biological target: T1, pDNA-PK ser2056 induction in HCT116 spheroids (Homo sapiens, UniProt P78527); experiment: Multicellular tumour spheroid + radiation, pDNA-PK inhibition, HCT116; format: cell-based; conditions: 20 Gy, 20% O2
T1 construct: endogenous in cells; host or cells: HCT116 multicellular tumour spheroids
Summary of the method: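 HCT116 spheroids (~0.5 mm) in MEM/10% FBS/10 mM glucose, 20% O2, 37 °C, pre-incubated 1 h with compound (10 or 5 μM down to 3.5 nM), irradiated 20 Gy, incubated 2 h more. Cryosections immunostained for pDNA-PK ser2056; EC50 (μM) for 50% reduction of radiation-induced pDNA-PK.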

[5] = Example 7, spheroid, cell line HCT115 [sic], read-out: EC50 (pDNA-PK inhibition, immunohistochemical endpoint)
[6] = Example 9 Study 2, read-out: Spheroid Cell line: HCT116 Immunohistochemical endpoint pDNA-PK inhibition EC50

With `O=C(N[C@H]1CC[C@@H](Oc2nc(N3CCOCC3)cc3ncccc23)CC1)c1c[nH]cn1` [Compound 144, N-((1s,4s)-4-((7-morpholino-1,6-naphthyridin-5-yl)oxy)cyclohexyl)-1H-imidazole-4-carboxamide] the “Hepatocyte Stability (mouse) % rem. 120 min” value [1] was “H (% remaining = 75-100%)”, the hepatocyte CLint at 1 uM [1] was under 8.2 µL/min/1e6 cells and the “Hepatocyte Stability (human) % rem. 120 min” value [2] was “H (% remaining = 75-100%)”. The hepatocyte CLint at 1 uM [2] was under 8.2 µL/min/1e6 cells, the “Microsomal Stability (mouse) % rem. 60 min” value [3] was “G (% remaining = 50-75%)” and the microsomal CLint at 0.1 uM [3] was under 116 µL/min/mg. The EC50 [4, 5] was 1000 to 10000 nM and the EC50 [4, 6] was 1000 to 10000 nM.
For `O=C(N[C@H]1CC[C@@H](Oc2nc(N3CCOCC3)cc3ncccc23)CC1)c1ncco1` [Compound 142, N-((1s,4s)-4-((7-morpholino-1,6-naphthyridin-5-yl)oxy)cyclohexyl)oxazole-2-carboxamide], the “Hepatocyte Stability (mouse) % rem. 120 min” value [1] was “F (% remaining = 25-50%)”, the hepatocyte CLint at 1 uM [1] was over 8.2 µL/min/1e6 cells and the “Hepatocyte Stability (human) % rem. 120 min” value [2] was “H (% remaining = 75-100%)”. The hepatocyte CLint at 1 uM [2] was under 8.2 µL/min/1e6 cells, the “Microsomal Stability (mouse) % rem. 60 min” value [3] was “G (% remaining = 50-75%)” and the microsomal CLint at 0.1 uM [3] was under 116 µL/min/mg. The EC50 [4, 5] was 1000 to 10000 nM and the EC50 [4, 6] was 1000 to 10000 nM.
In the case of `O=C(N[C@H]1CC[C@@H](Oc2nc(N3CCOCC3)cc3ncccc23)CC1)c1ccncc1` [Compound 113, N-((1s,4s)-4-((7-morpholino-1,6-naphthyridin-5-yl)oxy)cyclohexyl)isonicotinamide], the “Hepatocyte Stability (mouse) % rem. 120 min” value [1] is reported as “G (% remaining = 50-75%)”, the hepatocyte CLint at 1 uM [1] is reported as under 8.2 µL/min/1e6 cells and the “Hepatocyte Stability (human) % rem. 120 min” value [2] is reported as “G (% remaining = 50-75%)”. For the same molecule, the hepatocyte CLint at 1 uM [2] was under 8.2 µL/min/1e6 cells, the “Microsomal Stability (mouse) % rem. 60 min” value [3] was “F (% remaining = 25-50%)” and the microsomal CLint at 0.1 uM [3] was over 116 µL/min/mg. The EC50 [4, 5] was 500 to 1000 nM and the EC50 [4, 6] was 500 to 1000 nM.
In the case of `O=C(N[C@H]1CC[C@@H](Oc2nc(N3CCOCC3)cc3ncccc23)CC1)c1ccnnc1` [Compound 121, N-((1s,4s)-4-((7-morpholino-1,6-naphthyridin-5-yl)oxy)cyclohexyl)pyridazine-4-carboxamide], the “Hepatocyte Stability (mouse) % rem. 120 min” value [1] is reported as “G (% remaining = 50-75%)”, the hepatocyte CLint at 1 uM [1] is reported as under 8.2 µL/min/1e6 cells and the “Hepatocyte Stability (human) % rem. 120 min” value [2] is reported as “G (% remaining = 50-75%)”. The hepatocyte CLint at 1 uM [2] was under 8.2 µL/min/1e6 cells, the “Microsomal Stability (mouse) % rem. 60 min” value [3] was “H (% remaining = 75-100%)” and the microsomal CLint at 0.1 uM [3] was under 116 µL/min/mg. For the same molecule, the EC50 [4, 5] was 1000 to 10000 nM and the EC50 [4, 6] was 1000 to 10000 nM.
In the case of `Cc1ccnc(N[C@H]2CC[C@@H](Oc3nc(N4CCOCC4)cc4ncccc34)CC2)n1` [Compound 48, 4-methyl-N-((1s,4s)-4-((7-morpholino-1,6-naphthyridin-5-yl)oxy)cyclohexyl)pyrimidin-2-amine], the “Hepatocyte Stability (mouse) % rem. 120 min” value [1] is reported as “F (% remaining = 25-50%)”, the hepatocyte CLint at 1 uM [1] is reported as over 8.2 µL/min/1e6 cells and the “Hepatocyte Stability (human) % rem. 120 min” value [2] is reported as “F (% remaining = 25-50%)”. The hepatocyte CLint at 1 uM [2] was under 8.2 µL/min/1e6 cells, the EC50 [4, 5] was 500 to 1000 nM and the EC50 [4, 6] was 500 to 1000 nM.
With `Cn1ccc2nc(N[C@H]3CC[C@@H](Oc4nc(N5CCOCC5)cc5ncccc45)CC3)ncc21` [Compound 87, 5-Methyl-N-((1s,4s)-4-((7-morpholino-1,6-naphthyridin-5-yl)oxy)cyclohexyl)-5H-pyrrolo[3,2-d]pyrimidin-2-amine] the “Hepatocyte Stability (mouse) % rem. 120 min” value [1] was “F (% remaining = 25-50%)”, the hepatocyte CLint at 1 uM [1] was over 8.2 µL/min/1e6 cells and the “Hepatocyte Stability (human) % rem. 120 min” value [2] was “G (% remaining = 50-75%)”. The hepatocyte CLint at 1 uM [2] was under 8.2 µL/min/1e6 cells, the EC50 [4, 5] was 10 to 500 nM and the EC50 [4, 6] was 10 to 500 nM.
In the case of `CS(=O)(=O)Nc1cnc(N[C@H]2CC[C@@H](Oc3nc(N4CCOCC4)cc4ncccc34)CC2)nc1` [Compound 44, N-(2-(((1s,4s)-4-((7-morpholino-1,6-naphthyridin-5-yl)oxy)cyclohexyl)amino)pyrimidin-5-yl)methanesulfonamide], the “Hepatocyte Stability (mouse) % rem. 120 min” value [1] is reported as “G (% remaining = 50-75%)”, the hepatocyte CLint at 1 uM [1] is reported as under 8.2 µL/min/1e6 cells and the “Hepatocyte Stability (human) % rem. 120 min” value [2] is reported as “H (% remaining = 75-100%)”. It also gave a hepatocyte CLint at 1 uM [2] of under 8.2 µL/min/1e6 cells, an EC50 [4, 5] of 500 to 1000 nM and an EC50 [4, 6] of 500 to 1000 nM.
In the case of `Cn1cnc2cnc(N[C@H]3CC[C@@H](Oc4nc(N5CCOCC5)cc5ncccc45)CC3)nc21` [Compound 88, 9-Methyl-N-((1s,4s)-4-((7-morpholino-1,6-naphthyridin-5-yl)oxy)cyclohexyl)-9H-purin-2-amine], the “Hepatocyte Stability (mouse) % rem. 120 min” value [1] is reported as “E (% remaining = 0-25%)”, the hepatocyte CLint at 1 uM [1] is reported as over 8.2 µL/min/1e6 cells and the “Hepatocyte Stability (human) % rem. 120 min” value [2] is reported as “E (% remaining = 0-25%)”. For the same molecule, the hepatocyte CLint at 1 uM [2] was over 8.2 µL/min/1e6 cells, the EC50 [4, 5] was 10 to 500 nM and the EC50 [4, 6] was 10 to 500 nM.
With `c1cnc2cc(N3CCOCC3)nc(O[C@H]3CC[C@@H](Nc4ccn5nccc5n4)CC3)c2c1` [Compound 89, N-((1s,4s)-4-((7-Morpholino-1,6-naphthyridin-5-yl)oxy)cyclohexyl)pyrazolo[1,5-a]pyrimidin-5-amine] the “Hepatocyte Stability (mouse) % rem. 120 min” value [1] was “F (% remaining = 25-50%)”, the hepatocyte CLint at 1 uM [1] was over 8.2 µL/min/1e6 cells and the “Hepatocyte Stability (human) % rem. 120 min” value [2] was “G (% remaining = 50-75%)”. The hepatocyte CLint at 1 uM [2] was under 8.2 µL/min/1e6 cells, the EC50 [4, 5] was 500 to 1000 nM and the EC50 [4, 6] was 500 to 1000 nM.
For `Oc1cnc(N[C@H]2CC[C@@H](Oc3nc(N4CCOCC4)cc4ncccc34)CC2)nc1` [Compound 45, 2-(((1s,4s)-4-((7-morpholino-1,6-naphthyridin-5-yl)oxy)cyclohexyl)amino)pyrimidin-5-ol], the “Hepatocyte Stability (mouse) % rem. 120 min” value [1] was “F (% remaining = 25-50%)”, the hepatocyte CLint at 1 uM [1] was over 8.2 µL/min/1e6 cells and the “Hepatocyte Stability (human) % rem. 120 min” value [2] was “F (% remaining = 25-50%)”. For the same molecule, the hepatocyte CLint at 1 uM [2] was under 8.2 µL/min/1e6 cells, the EC50 [4, 5] was 500 to 1000 nM and the EC50 [4, 6] was 500 to 1000 nM.
In the case of `FC(F)c1ccc2c(O[C@H]3CC[C@@H](Nc4ncccn4)CC3)nc(N3CCOCC3)cc2n1` [Compound 21, N-((1s,4s)-4-((2-(Difluoromethyl)-7-morpholino-1,6-naphthyridin-5-yl)oxy)cyclohexyl)pyrimidin-2-amine], the “Hepatocyte Stability (mouse) % rem. 120 min” value [1] is reported as “G (% remaining = 50-75%)”, the hepatocyte CLint at 1 uM [1] is reported as under 8.2 µL/min/1e6 cells and the “Hepatocyte Stability (human) % rem. 120 min” value [2] is reported as “G (% remaining = 50-75%)”. The hepatocyte CLint at 1 uM [2] was under 8.2 µL/min/1e6 cells, the EC50 [4, 5] was 10000 to 100000 nM and the EC50 [4, 6] was 10000 to 100000 nM.
For `c1cnc2cc(N3CCOCC3)nc(O[C@H]3CC[C@@H](Nc4ncc5sccc5n4)CC3)c2c1` [Compound 84, N-((1s,4s)-4-((7-Morpholino-1,6-naphthyridin-5-yl)oxy)cyclohexyl)thieno[3,2-d]pyrimidin-2-amine], the “Hepatocyte Stability (mouse) % rem. 120 min” value [1] was “F (% remaining = 25-50%)”, the hepatocyte CLint at 1 uM [1] was over 8.2 µL/min/1e6 cells and the “Hepatocyte Stability (human) % rem. 120 min” value [2] was “F (% remaining = 25-50%)”. The hepatocyte CLint at 1 uM [2] was over 8.2 µL/min/1e6 cells, the EC50 [4, 5] was 500 to 1000 nM and the EC50 [4, 6] was 500 to 1000 nM.
For `c1cnc2cc(N3CCOCC3)nc(O[C@H]3CC[C@@H](Nc4ncnc5ccoc45)CC3)c2c1` [Compound 80a, N-((1s,4s)-4-((7-morpholino-1,6-naphthyridin-5-yl)oxy)cyclohexyl)furo[3,2-d]pyrimidin-4-amine], the “Hepatocyte Stability (mouse) % rem. 120 min” value [1] was “F (% remaining = 25-50%)”, the hepatocyte CLint at 1 uM [1] was over 8.2 µL/min/1e6 cells and the “Hepatocyte Stability (human) % rem. 120 min” value [2] was “G (% remaining = 50-75%)”. For the same molecule, the hepatocyte CLint at 1 uM [2] was under 8.2 µL/min/1e6 cells, the EC50 [4, 5] was 10 to 500 nM and the EC50 [4, 6] was 10 to 500 nM.
In the case of `Cn1cnc(N[C@H]2CC[C@@H](Oc3nc(N4CCOCC4)cc4ncccc34)CC2)n1` [Compound 31, 1-methyl-N-((1s,4s)-4-((7-morpholino-1,6-naphthyridin-5-yl)oxy)cyclohexyl)-1H-1,2,4-triazol-3-amine], the “Hepatocyte Stability (mouse) % rem. 120 min” value [1] is reported as “H (% remaining = 75-100%)”, the hepatocyte CLint at 1 uM [1] is reported as under 8.2 µL/min/1e6 cells and the “Hepatocyte Stability (human) % rem. 120 min” value [2] is reported as “F (% remaining = 25-50%)”. It also gave a hepatocyte CLint at 1 uM [2] of over 8.2 µL/min/1e6 cells, an EC50 [4, 5] of 1000 to 10000 nM and an EC50 [4, 6] of 1000 to 10000 nM.
